Patent US20230035586A1, “Salts of R-ketorolac” (Revere Pharmaceuticals, Inc., priority 2019, published 2023)

Key:
[1] = Dynamic Vapor Sorption (DVS) moisture sorption/desorption; type: physicochemical; conditions: for weight gain from 5-75% RH / weight gain from 5-75% RH, moles of H2O / weight gain above 75% RH / weight gain above 75% RH, moles of H2O: DVS sorption; for weight gain above 75% RH / weight gain above 75% RH, moles of H2O: above 75% RH (up to 95% RH); for form change after DVS, based on XRPD: XRPD of post-DVS solids
Description: DVS analysis (FIG. 5) was conducted by first equilibrating at ambient RH, and then dropping to 5% RH. It was then increased to 95% RH and cycled back to 5% RH. The sample was held at 5% RH until XRPD analysis. Upon equilibration from ambient RH (-48%) to 5% RH, the sample loses 0.4 wt %, equivalent to ˜0.1 moles of H2O. From 5-75% RH, the material undergoes a 1.2 wt % gain (˜0.25 moles of H2O). Above 75% RH, the material gains ˜12 wt % (˜3 moles of H2O).
The crystalline salt of R-ketorolac and meglumine was analyzed by DVS (FIG. 10). […] Upon equilibration from ambient RH (˜50%) to 5% RH, the sample loses 0.1 wt %, equivalent to <0.1 mole of H2O. From 5-75% RH, the material undergoes a 0.9 wt % gain (˜0.25 moles of H2O). Above 75% RH, the material gains ˜37 wt % (>12 moles of H2O). Upon desorption to 5% RH, which occurs with hysteresis, the sample retains ˜9.6 wt % (˜2.7 moles of H2O).
Moisture sorption/desorption data were collected on a VTI SGA-100 Vapor Sorption Analyzer. NaCl and PVP were used as calibration standards. Samples were not dried prior to analysis. Sorption and desorption data were collected over a range from 5% to 95% RH at 10% RH increments under a nitrogen purge. The equilibrium criterion used for analysis was less than 0.0100% weight change in 5 minutes with a maximum equilibration time of 3 hours. Data were not corrected for the initial moisture content of the samples.

[2] = in vivo; cited from earlier work

| weight retained upon desorption to 5% RH ([1]; DVS desorption to 5% RH) [wt %] | weight retained upon desorption to 5% RH, moles of H2O ([1]; DVS desorption to 5% RH) | hygroscopicity above 75% RH ([1]; DVS, above 75% RH) | hygroscopicity below 75% RH ([1]; DVS, below 75% RH) | SMILES | weight gain from 5-75% RH [1] [wt %] | weight gain from 5-75% RH, moles of H2O [1] | weight gain above 75% RH [1] [wt %] | weight gain above 75% RH, moles of H2O [1] | weight loss upon equilibration from ambient RH to 5% RH ([1]; DVS) [wt %] | weight loss upon equilibration from ambient RH to 5% RH, equivalent moles of H2O ([1]; DVS) | form change after DVS, based on XRPD [1] | moisture after desorption to 5% RH (in words) ([1]; DVS desorption to 5% RH, small hysteresis) | tolerability in rat studies [2] |
| --- | --- | --- | --- | --- | --- | --- | --- | --- | --- | --- | --- | --- | --- |
| ~9.6 | ~2.7 moles of H2O | highly hygroscopic | limited hygroscopicity | CNCC(O)C(O)C(O)C(O)CO.O=C(c1ccccc1)c1ccc2n1CCC2C(=O)O (stereo not drawn) [R-ketorolac meglumine crystalline salt, R-ketorolac meglumine salt] | 0.9 | ~0.25 moles of H2O | ~37 | > 12 moles of H2O | 0.1 | < 0.1 moles of H2O | form change is not observed | – | – |
| – | – | – | – | NC(CO)(CO)CO.O=C(c1ccccc1)c1ccc2n1CC[C@H]2C(=O)O [R-ketorolac tromethamine salt] | 1.2 | ~0.25 moles of H2O | ~12 | ~3 moles of H2O | 0.4 | ~0.1 moles of H2O | form change is not observed | all the gained moisture is lost | – |
| – | – | – | – | O=C(c1ccccc1)c1ccc2n1CC[C@H]2C(=O)O [R-ketorolac] | – | – | – | – | – | – | – | – | much better tolerated than S-ketorolac |
| – | – | – | – | O=C(c1ccccc1)c1ccc2n1CC[C@@H]2C(=O)O [S-ketorolac] | – | – | – | – | – | – | – | – | severe dose limiting toxicities |
